Laboratory results from PubChem BioAssay (NCI).
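A five-concentration, 48-hour dose response in 96-well plates underlies each endpoint, interpolated linearly between surrounding concentrations. GI50 is the concentration that inhibits growth by half. TGI is the concentration that stops growth completely.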

Experiments:
Assay in all cases: NCI tumour cell line growth inhibition, 48 h
[1] = system: OVCAR-4 ovarian
[2] = system: T-47D breast
[3] = system: 786-0 renal
[4] = system: KM12 colon
[5] = system: RXF 393 renal
[6] = system: NCI/ADR-RES ovarian
[7] = system: SNB-19 CNS
[8] = system: MDA-MB-435
[9] = system: SF-268 CNS
[10] = system: UACC-257 melanoma
[11] = system: SW-620 colon
[12] = system: HCT-116 colon
[13] = system: SR leukemia
[14] = system: SF-295 CNS
[15] = system: UACC-62 melanoma
[16] = system: NCI-H23 lung
[17] = system: HT29 colon
[18] = system: SK-MEL-28 melanoma
[19] = system: OVCAR-8 ovarian
[20] = system: HL-60(TB) leukemia
[21] = system: HS 578T breast
[22] = system: BT-549 breast
[23] = system: U251 CNS
[24] = system: HCT-15 colon
[25] = system: A498 renal
[26] = system: MALME-3M melanoma
[27] = system: TK-10 renal
[28] = system: SK-MEL-2 melanoma
[29] = system: MCF7 breast
[30] = system: NCI-H460 lung
[31] = system: MOLT-4 leukemia
[32] = system: SN12C renal
[33] = system: OVCAR-5 ovarian
[34] = system: UO-31 renal
[35] = system: PC-3 prostate
[36] = system: M14 melanoma
[37] = system: LOX IMVI melanoma
[38] = system: COLO 205 colon
[39] = system: HOP-92 NSCLC
[40] = system: K-562 leukemia
[41] = system: NCI-H226 lung
[42] = system: A549 NSCLC
[43] = system: EKVX NSCLC
[44] = system: SNB-75 CNS
[45] = system: IGROV1 ovarian
[46] = system: OVCAR-3 ovarian
[47] = system: MDA-MB-231 breast
[48] = system: HOP-62 NSCLC
[49] = system: CAKI-1 renal
[50] = system: RPMI-8226 leukemia
[51] = system: SK-OV-3 ovarian
[52] = system: DU-145 prostate
[53] = system: SF-539 CNS
[54] = system: NCI-H522 lung
[55] = system: CCRF-CEM leukemia
[56] = system: HCC-2998 colon
[57] = system: SK-MEL-5 melanoma
[58] = system: ACHN renal

COc1ccc(-c2cn(-c3cc(OC)c(OC)c(OC)c3)c(SCc3ccccc3)n2)cc1OC
GI50 [1]: > 100 µM
TGI [1]: > 100 µM
GI50 [2]: 41.5 µM
TGI [2]: > 100 µM
GI50 [3]: > 100 µM
TGI [3]: > 100 µM
GI50 [4]: > 100 µM
TGI [4]: > 100 µM
GI50 [5]: > 100 µM
TGI [5]: > 100 µM
GI50 [6]: > 100 µM
TGI [6]: > 100 µM
GI50 [7]: > 100 µM
TGI [7]: > 100 µM
GI50 [8]: > 100 µM
TGI [8]: > 100 µM
GI50 [9]: > 100 µM
TGI [9]: > 100 µM
GI50 [10]: > 100 µM
TGI [10]: > 100 µM
GI50 [11]: > 100 µM
TGI [11]: > 100 µM
GI50 [12]: > 100 µM
TGI [12]: > 100 µM
GI50 [13]: 97.8 µM
TGI [13]: > 100 µM
GI50 [14]: > 100 µM
TGI [14]: > 100 µM
GI50 [15]: > 100 µM
TGI [15]: > 100 µM
GI50 [16]: > 100 µM
TGI [16]: > 100 µM
GI50 [17]: > 100 µM
TGI [17]: > 100 µM
GI50 [18]: > 100 µM
TGI [18]: > 100 µM
GI50 [19]: > 100 µM
TGI [19]: > 100 µM
GI50 [20]: > 100 µM
TGI [20]: > 100 µM
GI50 [21]: > 100 µM
TGI [21]: > 100 µM
GI50 [22]: > 100 µM
TGI [22]: > 100 µM
GI50 [23]: > 100 µM
TGI [23]: > 100 µM
GI50 [24]: > 100 µM
TGI [24]: > 100 µM
GI50 [25]: > 100 µM
TGI [25]: > 100 µM
GI50 [26]: > 100 µM
TGI [26]: > 100 µM
GI50 [27]: > 100 µM
TGI [27]: > 100 µM
GI50 [28]: > 100 µM
TGI [28]: > 100 µM
GI50 [29]: > 100 µM
TGI [29]: > 100 µM
GI50 [30]: > 100 µM
TGI [30]: > 100 µM
GI50 [31]: 73.3 µM
TGI [31]: > 100 µM
GI50 [32]: > 100 µM
TGI [32]: > 100 µM
GI50 [33]: > 100 µM
TGI [33]: > 100 µM
GI50 [34]: 45.5 µM
TGI [34]: > 100 µM
GI50 [35]: > 100 µM
TGI [35]: > 100 µM
GI50 [36]: > 100 µM
TGI [36]: > 100 µM
GI50 [37]: > 100 µM
TGI [37]: > 100 µM
GI50 [38]: > 100 µM
TGI [38]: > 100 µM
GI50 [39]: > 100 µM
TGI [39]: > 100 µM
GI50 [40]: > 100 µM
TGI [40]: > 100 µM
GI50 [41]: > 100 µM
TGI [41]: > 100 µM
GI50 [42]: > 100 µM
TGI [42]: > 100 µM
GI50 [43]: > 100 µM
TGI [43]: > 100 µM
GI50 [44]: 82.3 µM
TGI [44]: > 100 µM
GI50 [45]: > 100 µM
TGI [45]: > 100 µM
GI50 [46]: > 100 µM
TGI [46]: > 100 µM
GI50 [47]: > 100 µM
TGI [47]: > 100 µM
GI50 [48]: > 100 µM
TGI [48]: > 100 µM
GI50 [49]: > 100 µM
TGI [49]: > 100 µM
GI50 [50]: > 100 µM
TGI [50]: > 100 µM
GI50 [51]: > 100 µM
TGI [51]: > 100 µM
GI50 [52]: > 100 µM
TGI [52]: > 100 µM
GI50 [53]: > 100 µM
TGI [53]: > 100 µM
GI50 [54]: > 100 µM
TGI [54]: > 100 µM
GI50 [55]: > 100 µM
TGI [55]: > 100 µM
GI50 [56]: 84.7 µM
TGI [56]: > 100 µM
GI50 [57]: 68.2 µM
TGI [57]: > 100 µM
GI50 [58]: > 100 µM
TGI [58]: > 100 µM
